Values after ≈ are worked out from the molar mass of the structure shown.
Tests used:
Assay in all cases: ≥ marks a high value that may be exact or a test limit, other limits are often not marked, values filed in µg/mL are converted to µM
Bacillus subtilis = test system: Bacillus subtilis
[1] = test system: Candida albicans ATCC 2002
[2] = test system: Escherichia coli ATCC 25922
[3] = test system: Staphylococcus aureus ATCC 2592
[4] = test system: Staphylococcus aureus ATCC BAA-1556
[5] = test system: Bacillus subtilis ATCC 23857
Micrococcus luteus = test system: Micrococcus luteus

SMILES	MIC [2]	MIC [4]	also measured
CC(C)[C@H](N)C(=O)N[C@@H](CCCCN)C(=O)N[C@@H](Cc1c[nH]c2ccccc12)C(=O)N[C@@H](CCCN=C(N)N)C(=O)N[C@@H](Cc1c[nH]c2ccccc12)C(=O)N[C@@H](CCCCN)C(=O)N[C@@H](CCCCN)C(=O)N[C@@H](Cc1c[nH]c2ccccc12)C(=O)N[C@@H](CCCN=C(N)N)C(=O)N[C@@H](Cc1c[nH]c2ccccc12)C(=O)N[C@@H](CCCCN)C(=O)N[C@@H](Cc1c[nH]c2ccccc12)C(=O)N[C@@H](CCCCN)C(=O)N[C@@H](Cc1c[nH]c2ccccc12)C(=O)N[C@@H](CCCCN)C(=O)N[C@H](C(N)=O)C(C)C [VKWRWKKWRWKWKWKV]	> 41.4 µM	–	MIC (Bacillus subtilis): ≥ 41.4 µM; MIC [1]: ≥ 41.4 µM; MIC [3]: ≥ 41.4 µM
CC(C)C[C@H](NC(=O)[C@H](Cc1c[nH]c2ccccc12)NC(=O)[C@H](Cc1c[nH]c2ccccc12)NC(=O)[C@H](CC(C)C)NC(=O)[C@H](Cc1c[nH]c2ccccc12)NC(=O)[C@H](Cc1c[nH]c2ccccc12)NC(=O)[C@H](CC(C)C)NC(=O)[C@H](Cc1c[nH]c2ccccc12)NC(=O)[C@@H](N)CCCN=C(N)N)C(N)=O [RWLWWLWWL]	–	6.25 µM (≈ 9.02 µg/mL)	–
CC(C)[C@H](N)C(=O)N[C@@H](CCCCN)C(=O)N[C@@H](Cc1c[nH]c2ccccc12)C(=O)N[C@@H](CCCN=C(N)N)C(=O)N[C@@H](Cc1c[nH]c2ccccc12)C(=O)N[C@@H](CCCCN)C(=O)N[C@@H](Cc1c[nH]c2ccccc12)C(=O)N[C@@H](CCCCN)C(=O)N[C@@H](Cc1c[nH]c2ccccc12)C(=O)N[C@@H](CCCN=C(N)N)C(=O)N[C@@H](Cc1c[nH]c2ccccc12)C(=O)N[C@@H](CCCCN)C(=O)N[C@@H](Cc1c[nH]c2ccccc12)C(=O)N[C@@H](CCCCN)C(=O)N[C@@H](Cc1c[nH]c2ccccc12)C(=O)N[C@@H](CCCCN)C(=O)N[C@H](C(N)=O)C(C)C [VKWRWKWKWRWKWKWKV]	> 38.4 µM	–	MIC (Bacillus subtilis): ≥ 38.4 µM; MIC [1]: ≥ 38.4 µM; MIC [3]: ≥ 38.4 µM
CC(C)C[C@H](NC(=O)[C@H](Cc1c[nH]c2ccccc12)NC(=O)[C@H](Cc1c[nH]c2ccccc12)NC(=O)[C@H](CC(C)C)NC(=O)[C@H](Cc1c[nH]c2ccccc12)NC(=O)[C@@H](N)Cc1c[nH]c2ccccc12)C(=O)N[C@@H](CCCN=C(N)N)C(=O)N[C@@H](Cc1c[nH]c2ccccc12)C(N)=O [WWLWWLRW]	–	6.25 µM (≈ 8.32 µg/mL)	–
CC[C@H](C)[C@@H]1NC(=O)[C@H](CO)NC(=O)[C@H](CCCCN)NC(=O)[C@H]([C@@H](C)O)NC(=O)[C@H](Cc2c[nH]c3ccccc23)NC(=O)[C@@H](N)CSSC[C@@H](C(=O)N[C@@H](Cc2ccccc2)C(=O)O)NC(=O)[C@@H]2CCCN2C(=O)[C@H](CCCCN)NC(=O)[C@@H]2CCCN2C(=O)[C@@H]2CCCN2C1=O [CWTKSIPPKPCF]	6.33 µM (≈ 8.89 µg/mL)	–	MIC (Bacillus subtilis): 7.46 µM (≈ 10.5 µg/mL); MIC [1]: 13.8 µM (≈ 19.4 µg/mL); MIC [3]: 4.24 µM (≈ 5.95 µg/mL)
CC(C)C[C@H](NC(=O)[C@H](CC(C)C)NC(=O)[C@H](CC(C)C)NC(=O)[C@H](CC(C)C)NC(=O)[C@H](CC(C)C)NC(=O)[C@H](CCCCN)NC(=O)[C@H](CCCCN)NC(=O)[C@H](CC(C)C)NC(=O)[C@@H](N)CC(C)C)C(N)=O [LLKKLLLLL]	–	12.5 µM (≈ 13.3 µg/mL)	–
CC(C)C[C@H](NC(=O)[C@H](CC(C)C)NC(=O)[C@H](CC(C)C)NC(=O)[C@H](CC(C)C)NC(=O)[C@H](CCCCN)NC(=O)[C@H](CCCCN)NC(=O)[C@H](CC(C)C)NC(=O)[C@H](CC(C)C)NC(=O)[C@@H](N)CC(C)C)C(N)=O [LLLKKLLLL]	–	≥ 100 µM	–
CC[C@H](C)[C@H](NC(=O)[C@H](CCC(=O)O)NC(=O)[C@@H]1CCCN1C(=O)[C@H](CO)NC(=O)[C@H](Cc1ccccc1)NC(=O)[C@H](C)NC(=O)[C@@H](NC(=O)CNC(=O)[C@H](CC(C)C)NC(=O)[C@H](CCCCN)NC(=O)[C@H](C)NC(=O)[C@H](C)NC(=O)[C@H](CCSC)NC(=O)[C@@H](NC(=O)[C@@H](NC(=O)[C@@H](NC(=O)[C@H](CC(C)C)NC(=O)[C@H](CS)NC(=O)[C@H](CC(N)=O)NC(=O)CNC(=O)[C@H](CC(C)C)NC(=O)[C@H](CC(C)C)NC(=O)[C@@H](N)CCCN=C(N)N)[C@@H](C)O)C(C)C)C(C)C)[C@@H](C)O)C(=O)N[C@@H](CCC(N)=O)C(=O)N[C@@H](CS)C(=O)N[C@@H](C)C(=O)N[C@@H](Cc1c[nH]c2ccccc12)C(=O)N[C@@H](CCC(N)=O)C(=O)N[C@@H](CCCCN)C(=O)O [RLLGNCLTVVMAAKLGTAFSPEIQCAWQK]	–	–	MIC (Micrococcus luteus): 31.2 µM (≈ 98.3 µg/mL)
CC(C)C[C@H](NC(=O)[C@H](CC(C)C)NC(=O)[C@H](CCCCN)NC(=O)[C@H](CC(C)C)NC(=O)[C@H](CCCCN)NC(=O)[C@H](CC(C)C)NC(=O)[C@H](CC(C)C)NC(=O)[C@H](CC(C)C)NC(=O)[C@@H](N)CC(C)C)C(N)=O [LLLLKLKLL]	–	≥ 100 µM	–

Continued, in another order:

MIC [2]	MIC [4]	SMILES	also measured
8.55 µM (≈ 12.5 µg/mL)	–	CC[C@H](C)[C@H](NC(=O)[C@@H](N)Cc1ccccc1)C(=O)N1CCC[C@H]1C(=O)N[C@@H](CC(C)C)C(=O)N[C@H](C(=O)N[C@@H](CO)C(=O)NCC(=O)N[C@@H](CC(C)C)C(=O)N[C@@H](Cc1ccccc1)C(=O)N[C@@H](CO)C(=O)N[C@@H](CCCN=C(N)N)C(=O)N[C@@H](CC(C)C)C(=O)N[C@@H](CC(C)C)C(N)=O)C(C)C [FIPLVSGLFSRLL]	MIC [1]: 8.55 µM (≈ 12.5 µg/mL); MIC [3]: 4.28 µM (≈ 6.25 µg/mL)
–	3.12 µM (≈ 4.37 µg/mL)	CC(C)C[C@H](NC(=O)[C@H](Cc1c[nH]c2ccccc12)NC(=O)[C@H](CCCN=C(N)N)NC(=O)[C@H](CC(C)C)NC(=O)[C@H](Cc1c[nH]c2ccccc12)NC(=O)[C@H](CCCN=C(N)N)NC(=O)[C@H](CCCN=C(N)N)NC(=O)[C@H](Cc1c[nH]c2ccccc12)NC(=O)[C@@H](N)CCCCN)C(N)=O [KWRRWLRWL]	–
–	25 µM (≈ 32.1 µg/mL)	CC[C@H](C)[C@H](NC(=O)[C@H](C)NC(=O)[C@H](CCCN=C(N)N)NC(=O)[C@H](CCCN=C(N)N)NC(=O)[C@H](Cc1c[nH]c2ccccc12)NC(=O)[C@@H](N)CCCCN)C(=O)N[C@@H](CCCN=C(N)N)C(=O)N[C@@H](Cc1c[nH]c2ccccc12)C(=O)N[C@@H](CC(C)C)C(N)=O [KWRRAIRWL]	–
–	25 µM (≈ 33.1 µg/mL)	CC[C@H](C)[C@H](NC(=O)[C@H](CC(C)C)NC(=O)[C@H](CCCN=C(N)N)NC(=O)[C@H](CCCN=C(N)N)NC(=O)[C@H](Cc1c[nH]c2ccccc12)NC(=O)[C@@H](N)CCCCN)C(=O)N[C@@H](CCCN=C(N)N)C(=O)N[C@@H](Cc1c[nH]c2ccccc12)C(=O)N[C@@H](CC(C)C)C(N)=O [KWRRLIRWL]	–
–	12.5 µM (≈ 16 µg/mL)	CC(C)C[C@H](NC(=O)[C@H](CCCCN)NC(=O)[C@H](CC(C)C)NC(=O)[C@H](CC(C)C)NC(=O)[C@H](Cc1c[nH]c2ccccc12)NC(=O)[C@H](CCCCN)NC(=O)[C@H](CC(C)C)NC(=O)[C@H](CC(C)C)NC(=O)[C@H](CCCCN)NC(=O)[C@@H](N)CCCCN)C(N)=O [KKLLKWLLKL]	–
> 128 µM	–	CC[C@H](C)[C@H](NC(=O)CN)C(=O)N[C@H](C(=O)N[C@@H](C)C(=O)NCC(=O)N[C@H](C(=O)N[C@H](C(=O)N[C@H](C(=O)N[C@@H](C)C(=O)N[C@H](C(=O)N[C@@H](CCCCN)C(=O)N[C@@H](CCCCN)C(N)=O)[C@@H](C)CC)[C@@H](C)CC)[C@@H](C)CC)[C@@H](C)CC)[C@@H](C)CC [GIIAGIIIAIKK]	MIC [5]: 8 µM (≈ 9.67 µg/mL)
> 128 µM	–	CC[C@H](C)[C@H](NC(=O)CN)C(=O)N[C@@H](CCCN=C(N)N)C(=O)N[C@@H](CCCN=C(N)N)C(=O)NCC(=O)N[C@H](C(=O)N[C@@H](CCCN=C(N)N)C(=O)N[C@@H](CCCN=C(N)N)C(=O)N[C@H](C(=O)N[C@H](C(=O)N[C@@H](CCCCN)C(=O)N[C@@H](CCCN=C(N)N)C(N)=O)[C@@H](C)CC)[C@@H](C)CC)[C@@H](C)CC [GIRRGIRRIIKR]	MIC [5]: ≥ 128 µM
